Test results published in patent publication US20120270237A9, “METHODS FOR THE IDENTIFICATION OF KINASE INTERACTING MOLECULES AND FOR THE PURIFICATION OF KINASE PROTEINS” (Cellzone AG, priority 2009, published 2012).

Key:
[1] = molecular target: T1, ADCK1 (Homo sapiens, UniProt Q86TW2); assay: Kinobeads competition binding, L-363 cell lysate; conditions: 10 μM free compound, L-363 lysate
T1 construct: capturing and identification of kinases from L-363 cell lysate; endogenous in cells; host or cells: L-363 (treated with MG132 before harvest)
T1 sequence (Q86TW2 whole entry): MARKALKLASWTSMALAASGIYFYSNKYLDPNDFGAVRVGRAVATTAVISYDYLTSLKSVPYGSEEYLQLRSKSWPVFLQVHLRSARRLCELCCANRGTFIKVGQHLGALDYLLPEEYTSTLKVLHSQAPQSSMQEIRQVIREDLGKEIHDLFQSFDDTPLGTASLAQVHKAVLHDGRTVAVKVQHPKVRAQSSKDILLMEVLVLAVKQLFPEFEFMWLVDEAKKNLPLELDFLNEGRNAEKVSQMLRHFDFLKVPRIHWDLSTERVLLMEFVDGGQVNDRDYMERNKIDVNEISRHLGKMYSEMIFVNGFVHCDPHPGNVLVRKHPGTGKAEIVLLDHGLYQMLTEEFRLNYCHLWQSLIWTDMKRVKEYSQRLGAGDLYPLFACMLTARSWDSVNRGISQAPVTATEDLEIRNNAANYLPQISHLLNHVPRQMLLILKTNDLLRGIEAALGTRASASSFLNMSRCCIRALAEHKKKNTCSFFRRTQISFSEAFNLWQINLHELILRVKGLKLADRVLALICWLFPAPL
Experimental: (§1) To one aliquot of cell lysate 10 μM of the free compound (FIG. 3, CZC31326) was added and allowed to bind to proteins in the lysate. Then the affinity matrix with the immobilized compound was added to capture proteins that were not interacting with the previously added free compound. Beads were separated from the lysate and bead bound proteins were eluted in SDS sample buffer and subsequently separated by SDS-Polyacrylamide gel electrophoresis (FIG. 8). Suitable gel bands were cut out and subjected to in-gel proteolytic digestion with trypsin. The second lysate aliquot was processed identically, however no free compound was added (DMSO solvent control). Peptides originating from samples 1 and 2 were labeled with iTRAQ reagents (iTRAQ 114 and iTRAQ 117) and the combined samples were analyzed with a nano-flow liquid chromatography system coupled online to a tandem mass spectrometer (LC-MS/MS) experiment followed by iTRAQ reporter ion quantification in the MS/MS spectra as described in Example 2.
(§2) For this experiment the human plasma cell leukaemia line L-363 was used (German Collection of Microorganisms and Cell Cultures, DSMZ number ACC49, Braunschweig, Germany). Cells were treated for three hours with 20 μM of the proteasome inhibitor MG132 (Z-Leu-Leu-Leu-al, Sigma C2211) prior to cell harvesting.

[2] = molecular target: T2, DRAK2 (Homo sapiens, UniProt O94768); assay: Kinobeads competition binding, L-363 cell lysate; conditions: 10 μM free compound, L-363 lysate
T2 construct: capturing and identification of kinases from L-363 cell lysate; endogenous in cells; host or cells: L-363 (DSMZ ACC49), treated with MG132 before harvest
T2 sequence (O94768 whole entry): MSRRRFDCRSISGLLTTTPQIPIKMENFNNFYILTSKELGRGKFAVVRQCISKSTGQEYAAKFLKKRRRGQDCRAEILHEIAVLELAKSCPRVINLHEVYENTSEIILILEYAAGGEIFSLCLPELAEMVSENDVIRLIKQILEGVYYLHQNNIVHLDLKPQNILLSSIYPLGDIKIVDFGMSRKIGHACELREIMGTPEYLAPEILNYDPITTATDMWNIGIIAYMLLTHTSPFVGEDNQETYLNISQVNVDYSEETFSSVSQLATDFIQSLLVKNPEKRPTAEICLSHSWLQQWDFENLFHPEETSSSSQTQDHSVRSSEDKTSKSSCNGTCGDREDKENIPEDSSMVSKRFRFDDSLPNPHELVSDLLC
Experimental: as §1, §2

[3] = molecular target: T3, DYRK1A (Homo sapiens, UniProt Q13627); assay: Kinobeads competition binding, L-363 cell lysate; conditions: 10 μM free compound, L-363 lysate
T3 construct: capturing and identification of kinases from L-363 cell lysate; endogenous in cells; host or cells: L-363 (DSMZ ACC49), treated with MG132 before harvest
Experimental: as §1, §2

[4] = molecular target: T4, HRI (Homo sapiens, UniProt Q9BQI3); assay: Kinobeads competition binding, L-363 cell lysate; conditions: 10 μM free compound, L-363 lysate
T4 construct: capturing and identification of kinases from L-363 cell lysate; endogenous in cells; host or cells: L-363 (DSMZ ACC49), treated with MG132 before harvest
T4 sequence (Q9BQI3 whole entry): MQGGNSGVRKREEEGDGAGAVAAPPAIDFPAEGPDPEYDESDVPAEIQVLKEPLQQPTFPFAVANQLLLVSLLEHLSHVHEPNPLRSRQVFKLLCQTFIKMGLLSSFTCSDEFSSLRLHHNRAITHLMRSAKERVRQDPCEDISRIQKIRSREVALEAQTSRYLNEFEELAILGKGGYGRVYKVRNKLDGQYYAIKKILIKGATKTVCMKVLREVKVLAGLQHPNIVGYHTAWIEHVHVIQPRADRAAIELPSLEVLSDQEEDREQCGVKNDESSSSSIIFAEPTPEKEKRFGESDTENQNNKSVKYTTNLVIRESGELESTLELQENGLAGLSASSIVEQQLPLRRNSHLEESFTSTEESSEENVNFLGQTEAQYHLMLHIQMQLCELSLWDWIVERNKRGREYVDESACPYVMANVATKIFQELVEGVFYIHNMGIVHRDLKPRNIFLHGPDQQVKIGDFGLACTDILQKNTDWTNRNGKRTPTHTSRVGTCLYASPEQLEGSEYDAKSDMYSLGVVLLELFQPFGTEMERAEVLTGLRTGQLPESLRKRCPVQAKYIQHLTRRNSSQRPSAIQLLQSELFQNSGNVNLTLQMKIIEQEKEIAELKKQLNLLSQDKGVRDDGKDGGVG
Experimental: as §1, §2

[5] = molecular target: T5, INSR (Homo sapiens, UniProt P06213); assay: Kinobeads competition binding, L-363 cell lysate; conditions: 10 μM free compound, L-363 lysate
T5 construct: capturing and identification of kinases from L-363 cell lysate; endogenous in cells; host or cells: L-363 (DSMZ ACC49), treated with MG132 before harvest
Experimental: as §1, §2

[6] = molecular target: T6, JAK3 (Homo sapiens, UniProt P52333); assay: Kinobeads competition binding, L-363 cell lysate; conditions: 10 μM free compound, L-363 lysate
T6 construct: capturing and identification of kinases from L-363 cell lysate; endogenous in cells; host or cells: L-363 (DSMZ ACC49), treated with MG132 before harvest
Experimental: as §1, §2

[7] = molecular target: T7, NEK1 (Homo sapiens, UniProt Q96PY6); assay: Kinobeads competition binding, L-363 cell lysate; conditions: 10 μM free compound, L-363 lysate
T7 construct: capturing and identification of kinases from L-363 cell lysate; endogenous in cells; host or cells: L-363 (DSMZ ACC49), treated with MG132 before harvest
T7 sequence (Q96PY6 whole entry): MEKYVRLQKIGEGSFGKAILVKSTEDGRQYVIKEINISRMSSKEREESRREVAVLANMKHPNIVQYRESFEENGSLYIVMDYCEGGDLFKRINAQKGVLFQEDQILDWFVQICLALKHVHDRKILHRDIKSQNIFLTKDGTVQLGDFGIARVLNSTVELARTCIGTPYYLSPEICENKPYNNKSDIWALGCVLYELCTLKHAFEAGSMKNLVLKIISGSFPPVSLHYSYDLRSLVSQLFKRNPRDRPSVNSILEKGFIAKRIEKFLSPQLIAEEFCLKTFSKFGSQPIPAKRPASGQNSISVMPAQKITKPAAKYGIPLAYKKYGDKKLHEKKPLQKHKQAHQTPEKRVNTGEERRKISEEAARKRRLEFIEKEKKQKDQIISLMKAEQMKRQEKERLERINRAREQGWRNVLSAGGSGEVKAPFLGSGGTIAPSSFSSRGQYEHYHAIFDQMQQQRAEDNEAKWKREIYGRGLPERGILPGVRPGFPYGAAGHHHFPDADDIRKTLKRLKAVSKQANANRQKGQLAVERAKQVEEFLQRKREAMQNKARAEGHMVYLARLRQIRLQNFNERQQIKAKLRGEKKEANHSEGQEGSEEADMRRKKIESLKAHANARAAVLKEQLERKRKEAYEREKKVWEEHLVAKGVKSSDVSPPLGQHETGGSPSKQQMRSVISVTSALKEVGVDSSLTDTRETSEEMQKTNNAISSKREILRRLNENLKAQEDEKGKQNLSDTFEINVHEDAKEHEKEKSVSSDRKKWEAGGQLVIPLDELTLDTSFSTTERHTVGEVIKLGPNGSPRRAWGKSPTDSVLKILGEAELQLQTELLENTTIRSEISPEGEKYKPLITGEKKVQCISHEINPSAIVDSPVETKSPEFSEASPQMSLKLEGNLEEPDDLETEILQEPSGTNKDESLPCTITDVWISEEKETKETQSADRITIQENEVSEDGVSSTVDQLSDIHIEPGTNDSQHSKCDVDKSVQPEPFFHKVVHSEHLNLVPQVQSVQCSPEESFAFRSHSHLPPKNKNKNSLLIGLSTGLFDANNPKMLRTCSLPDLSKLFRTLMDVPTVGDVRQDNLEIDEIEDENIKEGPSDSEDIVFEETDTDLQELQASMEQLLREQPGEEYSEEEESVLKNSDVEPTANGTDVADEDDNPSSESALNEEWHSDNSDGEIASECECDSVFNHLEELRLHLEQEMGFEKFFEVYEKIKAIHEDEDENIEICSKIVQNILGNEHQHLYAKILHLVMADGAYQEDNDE
Experimental: as §1, §2

[8] = molecular target: T8, NEK6 (Homo sapiens, UniProt Q9HC98); assay: Kinobeads competition binding, L-363 cell lysate; conditions: 10 μM free compound, L-363 lysate
T8 construct: capturing and identification of kinases from L-363 cell lysate; endogenous in cells; host or cells: L-363 (DSMZ ACC49), treated with MG132 before harvest
Experimental: as §1, §2

[9] = molecular target: T9, NEK7 (Homo sapiens, UniProt Q8TDX7); assay: Kinobeads competition binding, L-363 cell lysate; conditions: 10 μM free compound, L-363 lysate
T9 construct: capturing and identification of kinases from L-363 cell lysate; endogenous in cells; host or cells: L-363 (DSMZ ACC49), treated with MG132 before harvest
T9 sequence (Q8TDX7 whole entry): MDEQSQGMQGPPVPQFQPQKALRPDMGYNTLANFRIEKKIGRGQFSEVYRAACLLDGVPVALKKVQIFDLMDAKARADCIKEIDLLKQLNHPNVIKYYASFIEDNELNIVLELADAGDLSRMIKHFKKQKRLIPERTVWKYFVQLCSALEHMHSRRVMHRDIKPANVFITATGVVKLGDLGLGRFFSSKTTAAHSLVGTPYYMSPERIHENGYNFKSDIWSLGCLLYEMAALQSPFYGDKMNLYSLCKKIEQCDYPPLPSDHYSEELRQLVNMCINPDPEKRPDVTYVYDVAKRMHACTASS
Experimental: as §1, §2

[10] = molecular target: T10, NIK (Homo sapiens, UniProt Q99558); assay: Kinobeads competition binding, L-363 cell lysate; conditions: 10 μM free compound, L-363 lysate
T10 construct: capturing and identification of kinases from L-363 cell lysate; endogenous in cells; host or cells: L-363 (DSMZ ACC49), treated 3 h with 20 uM MG132 before harvest
Experimental: as §1, §2

[11] = molecular target: T11, NuaK2 (Homo sapiens, UniProt Q9H093); assay: Kinobeads competition binding, L-363 cell lysate; conditions: 10 μM free compound, L-363 lysate
T11 construct: capturing and identification of kinases from L-363 cell lysate; endogenous in cells; host or cells: L-363 (DSMZ ACC49), treated with MG132 before harvest
Experimental: as §1, §2

[12] = molecular target: T12, PIK4Ca (Homo sapiens, UniProt P42356); assay: Kinobeads competition binding, L-363 cell lysate; conditions: 10 μM free compound, L-363 lysate
T12 construct: capturing and identification of kinases from L-363 cell lysate; endogenous in cells; host or cells: L-363 (DSMZ ACC49), treated with MG132 before harvest
Experimental: as §1, §2

[13] = molecular target: T13, RSK4 (Homo sapiens, UniProt Q9UK32); assay: Kinobeads competition binding, L-363 cell lysate; conditions: 10 μM free compound, L-363 lysate
T13 construct: endogenous in cells; host or cells: L-363 (DSMZ ACC49), treated with MG132 before harvest
T13 sequence (Q9UK32 whole entry): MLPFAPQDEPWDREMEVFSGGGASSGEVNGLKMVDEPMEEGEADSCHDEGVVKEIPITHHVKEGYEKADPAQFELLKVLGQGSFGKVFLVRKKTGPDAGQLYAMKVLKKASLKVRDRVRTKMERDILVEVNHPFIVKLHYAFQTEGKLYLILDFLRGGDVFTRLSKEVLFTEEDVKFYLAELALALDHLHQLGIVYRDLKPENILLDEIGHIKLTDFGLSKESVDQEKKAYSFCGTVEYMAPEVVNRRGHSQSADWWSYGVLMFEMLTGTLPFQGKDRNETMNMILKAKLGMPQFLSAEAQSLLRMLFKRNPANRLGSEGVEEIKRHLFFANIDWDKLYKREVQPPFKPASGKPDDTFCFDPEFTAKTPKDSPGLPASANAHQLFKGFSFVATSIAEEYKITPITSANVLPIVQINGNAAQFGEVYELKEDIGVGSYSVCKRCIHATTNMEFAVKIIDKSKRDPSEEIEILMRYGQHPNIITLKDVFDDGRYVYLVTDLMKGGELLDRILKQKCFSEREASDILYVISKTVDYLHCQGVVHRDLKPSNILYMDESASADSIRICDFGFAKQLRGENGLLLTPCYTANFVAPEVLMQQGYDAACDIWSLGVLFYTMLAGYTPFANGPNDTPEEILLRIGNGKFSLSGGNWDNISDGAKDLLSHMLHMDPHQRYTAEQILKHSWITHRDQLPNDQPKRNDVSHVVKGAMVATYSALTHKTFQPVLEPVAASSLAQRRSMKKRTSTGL
Experimental: as §1, §2

[14] = molecular target: SLK (Homo sapiens, UniProt Q9H2G2); assay: Kinobeads competition binding, L-363 cell lysate; conditions: 10 μM free compound, L-363 lysate
Experimental: as §1, §2

[15] = molecular target: T14, ULK1 (Homo sapiens, UniProt O75385); assay: Kinobeads competition binding, L-363 cell lysate; conditions: 10 μM free compound, L-363 lysate
T14 construct: endogenous in cells; host or cells: L-363 (DSMZ ACC49), treated with MG132 before harvest
T14 sequence (O75385 whole entry): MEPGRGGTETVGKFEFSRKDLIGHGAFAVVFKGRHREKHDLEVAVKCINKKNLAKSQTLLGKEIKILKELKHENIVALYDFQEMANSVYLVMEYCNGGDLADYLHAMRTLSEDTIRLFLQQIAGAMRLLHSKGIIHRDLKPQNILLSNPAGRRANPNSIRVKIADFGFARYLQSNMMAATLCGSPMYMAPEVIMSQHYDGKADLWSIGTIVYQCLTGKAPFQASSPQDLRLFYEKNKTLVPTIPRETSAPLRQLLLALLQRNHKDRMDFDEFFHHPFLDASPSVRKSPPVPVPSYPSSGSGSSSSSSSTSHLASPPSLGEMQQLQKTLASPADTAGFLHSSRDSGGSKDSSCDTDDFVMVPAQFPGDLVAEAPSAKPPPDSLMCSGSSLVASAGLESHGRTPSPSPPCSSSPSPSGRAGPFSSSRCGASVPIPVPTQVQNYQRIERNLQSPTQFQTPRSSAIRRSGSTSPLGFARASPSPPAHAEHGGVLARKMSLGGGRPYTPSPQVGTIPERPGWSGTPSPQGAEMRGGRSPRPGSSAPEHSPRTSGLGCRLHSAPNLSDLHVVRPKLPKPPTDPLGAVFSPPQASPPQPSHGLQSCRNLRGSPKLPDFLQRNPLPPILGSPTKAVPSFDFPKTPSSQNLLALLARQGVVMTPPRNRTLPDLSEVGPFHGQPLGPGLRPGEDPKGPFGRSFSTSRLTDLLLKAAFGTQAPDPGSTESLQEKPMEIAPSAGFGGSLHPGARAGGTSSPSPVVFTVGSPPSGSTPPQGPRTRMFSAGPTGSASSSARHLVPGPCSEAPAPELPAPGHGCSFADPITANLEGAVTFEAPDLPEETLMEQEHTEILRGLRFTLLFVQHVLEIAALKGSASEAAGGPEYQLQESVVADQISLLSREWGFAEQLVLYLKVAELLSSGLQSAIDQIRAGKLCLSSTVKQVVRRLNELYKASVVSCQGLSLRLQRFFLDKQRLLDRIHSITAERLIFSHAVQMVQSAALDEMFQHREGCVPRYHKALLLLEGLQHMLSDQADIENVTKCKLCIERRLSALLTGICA
Experimental: as §1, §2

[16] = molecular target: T15, ULK3 (Homo sapiens, UniProt Q6PHR2); assay: Kinobeads competition binding, L-363 cell lysate; conditions: 10 μM free compound, L-363 lysate
T15 sequence (Q6PHR2 1-472): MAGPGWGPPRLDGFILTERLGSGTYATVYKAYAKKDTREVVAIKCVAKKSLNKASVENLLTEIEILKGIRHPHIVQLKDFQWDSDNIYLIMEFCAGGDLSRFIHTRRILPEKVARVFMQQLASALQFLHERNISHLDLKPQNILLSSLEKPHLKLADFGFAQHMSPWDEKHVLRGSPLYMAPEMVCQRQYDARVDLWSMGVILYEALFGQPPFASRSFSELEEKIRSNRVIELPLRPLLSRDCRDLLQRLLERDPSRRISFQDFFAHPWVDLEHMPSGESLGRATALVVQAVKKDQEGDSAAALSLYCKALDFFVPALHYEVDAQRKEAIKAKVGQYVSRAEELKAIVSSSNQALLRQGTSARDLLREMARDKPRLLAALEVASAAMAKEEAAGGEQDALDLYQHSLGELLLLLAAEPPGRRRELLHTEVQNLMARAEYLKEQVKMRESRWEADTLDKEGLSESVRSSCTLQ
Experimental: as §1, §2

[17] = molecular target: T16, KDR (Homo sapiens, UniProt P35968); assay: Kinobeads competition binding, HeLa Placenta lysate mix; conditions: 10 μM free compound
T16 construct: capturing and identification of kinases from mixed HeLa placenta lysates; endogenous in cells; host or cells: mixed lysate of HeLa cells and placenta tissue
Experimental: as §1, with “10).” for “8).”

[18] = molecular target: T17, MAP3K7 (Homo sapiens, UniProt O43318); assay: as above; conditions: 10 μM free compound
T17 construct: capturing and identification of kinases from mixed HeLa placenta lysates; endogenous in cells; host or cells: mixed lysate of HeLa cells and placenta tissue
Experimental: as §1, with “10).” for “8).”

[19] = molecular target: T18, SRC (Homo sapiens, UniProt P12931); assay: as above; conditions: 10 μM free compound
T18 construct: capturing and identification of kinases from mixed HeLa placenta lysates; endogenous in cells; host or cells: mixed lysate of HeLa cells and placenta tissue
Experimental: as §1, with “10).” for “8).”

[20] = molecular target: T19, TNK1 (Homo sapiens, UniProt Q13470); assay: as above; conditions: 10 μM free compound
T19 construct: capturing and identification of kinases from mixed HeLa placenta lysates; endogenous in cells; host or cells: mixed lysate of HeLa cells and placenta tissue
Experimental: as §1, with “10).” for “8).”

inhibition at 10 µM [1]: 93.8%
inhibition at 10 µM [2]: 93.3%
inhibition at 10 µM [3]: 96.5%
inhibition at 10 µM [4]: 95.8%
inhibition at 10 µM [5]: 90.1%
inhibition at 10 µM [6]: 98.1%
inhibition at 10 µM [7]: 95.7%
inhibition at 10 µM [8]: 83.7%
inhibition at 10 µM [9]: 93.9%
inhibition at 10 µM [10]: 98%
Competition % [11]: 96.7%
inhibition at 10 µM [12]: 86%
Competition % [13]: 96.7%
inhibition at 10 µM [14]: 95%
Competition % [15]: 96.5%
Competition % [16]: 98.5%
inhibition at 10 µM [17]: 90%
inhibition at 10 µM [18]: 82.1%
inhibition at 10 µM [19]: 92.2%
inhibition at 10 µM [20]: 94.3%
Compound: CS(=O)(=O)Nc1ccccc1Nc1nc(Nc2cccc(OCCN)c2)ncc1Cl [CZC31326, N-(2-(2-(3-(2-aminoethoxy)phenylamino)-5-chloropyrimidin-4-ylamino)phenyl)methanesulfonamide]
